Data set [1] concerns the target HDAC1 (Homo sapiens, UniProt Q13547). The data set can be described thus: HDAC inhibition by SAMDI mass spectrometry, HDAC1. The format is biochemical.
For data set [2], the system named is Jurkat J.γ. The data set can be described thus: Cell viability assay. The format is cell-based.
The target in data set [3] is T1, MMP1 (Homo sapiens, UniProt P03956).
T1 sequence (P03956 100-269 limits assumed): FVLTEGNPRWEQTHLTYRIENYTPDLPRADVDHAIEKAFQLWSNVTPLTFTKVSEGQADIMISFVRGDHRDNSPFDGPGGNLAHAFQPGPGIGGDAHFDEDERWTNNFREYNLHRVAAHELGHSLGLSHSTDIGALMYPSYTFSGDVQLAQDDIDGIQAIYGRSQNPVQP
In words: MMP assay. The conditions noted are these: 10µM. The format is biochemical.

The target in data set [4] is MMP2 (Homo sapiens, UniProt P08253). The data set can be described thus: MMP assay. It counts as biochemical. The settings on record: 10µM.
Data set [5] concerns the target MMP3 (Homo sapiens, UniProt P08254). In words: MMP assay. It counts as biochemical. The settings on record: 10µM.
Data set [6] concerns the target T2, MMP7 (Homo sapiens, UniProt P09237).
T2 sequence (P09237 95-267): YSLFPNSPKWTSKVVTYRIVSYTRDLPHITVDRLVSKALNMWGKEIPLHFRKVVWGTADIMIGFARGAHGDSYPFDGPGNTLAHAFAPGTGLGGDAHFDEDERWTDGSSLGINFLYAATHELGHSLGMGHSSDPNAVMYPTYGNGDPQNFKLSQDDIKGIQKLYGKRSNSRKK
In words: MMP assay. The format is biochemical. The conditions noted are these: 10µM.

In data set [7] the target is MMP9 (Homo sapiens, UniProt P14780). In words: MMP assay. The format is biochemical. The settings on record: 10µM.
Data set [8] has as its target MMP14 (Homo sapiens, UniProt P50281). In words: MMP assay. It counts as biochemical. The conditions noted are these: 10µM.
In data set [9] the target is MMP13 (Homo sapiens, UniProt P45452). The data set can be described thus: MMP assay. The format is biochemical. The conditions noted are these: 10µM.
Data set [10] concerns tubulin acetylation (HDAC6 inhibition) in LNCaP cell line. The data set can be described thus: Western blot analysis for tubulin acetylation. The format is cell-based. The settings on record: LNCaP cells, 4 hours, 20 µM and IC50 concentration. (In general: Immunoblotting shows a protein as a band on a membrane.)
The test system of data set [11] is DU-145. The data set can be described thus: Cell viability assay. The format is cell-based. The settings on record: for Fold less cytotoxic than 14e, DU145: compared with 14e.
Data set [12] has as its system LNCaP. In words: Cell viability assay. It counts as cell-based.
For data set [13], the system named is Jurkat. In words: Cell viability assay. It counts as cell-based.
For data set [14], the target named is T3, HDAC6 (Homo sapiens, UniProt Q9UBN7).
T3 sequence (Q9UBN7 1-1215): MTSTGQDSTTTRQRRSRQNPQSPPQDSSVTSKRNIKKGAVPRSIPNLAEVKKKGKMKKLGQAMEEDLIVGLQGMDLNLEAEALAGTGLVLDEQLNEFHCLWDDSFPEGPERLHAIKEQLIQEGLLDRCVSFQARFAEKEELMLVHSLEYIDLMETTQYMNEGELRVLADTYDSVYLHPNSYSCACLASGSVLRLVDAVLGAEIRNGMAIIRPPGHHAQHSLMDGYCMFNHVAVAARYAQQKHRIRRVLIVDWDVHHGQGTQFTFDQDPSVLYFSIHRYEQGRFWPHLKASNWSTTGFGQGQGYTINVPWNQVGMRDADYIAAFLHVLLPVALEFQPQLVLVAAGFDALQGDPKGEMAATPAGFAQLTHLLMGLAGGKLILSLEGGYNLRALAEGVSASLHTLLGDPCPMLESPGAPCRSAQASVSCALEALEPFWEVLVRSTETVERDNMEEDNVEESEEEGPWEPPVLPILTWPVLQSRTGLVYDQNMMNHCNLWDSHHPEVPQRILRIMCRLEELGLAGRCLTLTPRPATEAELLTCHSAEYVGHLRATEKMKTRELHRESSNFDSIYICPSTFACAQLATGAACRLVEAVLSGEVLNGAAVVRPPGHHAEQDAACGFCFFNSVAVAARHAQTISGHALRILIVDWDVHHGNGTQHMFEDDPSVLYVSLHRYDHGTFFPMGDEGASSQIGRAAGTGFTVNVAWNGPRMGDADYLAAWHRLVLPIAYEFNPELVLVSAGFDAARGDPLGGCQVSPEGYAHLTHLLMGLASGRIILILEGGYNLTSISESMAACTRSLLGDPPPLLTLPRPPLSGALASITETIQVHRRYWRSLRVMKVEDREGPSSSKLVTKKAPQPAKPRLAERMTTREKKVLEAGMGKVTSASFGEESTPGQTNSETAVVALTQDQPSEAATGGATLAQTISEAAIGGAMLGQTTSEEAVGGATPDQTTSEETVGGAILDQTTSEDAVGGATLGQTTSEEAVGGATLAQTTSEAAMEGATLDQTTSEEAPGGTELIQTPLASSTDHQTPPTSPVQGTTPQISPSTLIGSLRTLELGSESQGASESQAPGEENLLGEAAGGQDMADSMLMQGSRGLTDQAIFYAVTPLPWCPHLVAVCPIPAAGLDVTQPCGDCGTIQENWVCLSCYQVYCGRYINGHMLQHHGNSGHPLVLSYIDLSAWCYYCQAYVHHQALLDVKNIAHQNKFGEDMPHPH
The data set can be described thus: HDAC inhibition by SAMDI mass spectrometry, HDAC6. It counts as biochemical.

This is an account of results in paper PMC4029159 (Journal of medicinal chemistry, 2013).

Where “and” joins values, the source holds several entries; their conditions need not be identical. Identical values can stand only once.

MMP3, sequence (P08254 100-272 limits assumed): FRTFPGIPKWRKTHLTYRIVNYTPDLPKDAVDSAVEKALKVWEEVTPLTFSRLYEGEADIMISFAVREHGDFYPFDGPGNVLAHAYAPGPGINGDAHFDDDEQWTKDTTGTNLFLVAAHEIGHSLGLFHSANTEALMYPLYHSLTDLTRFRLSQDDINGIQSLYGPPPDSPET
HDAC1, sequence (Q13547 whole entry): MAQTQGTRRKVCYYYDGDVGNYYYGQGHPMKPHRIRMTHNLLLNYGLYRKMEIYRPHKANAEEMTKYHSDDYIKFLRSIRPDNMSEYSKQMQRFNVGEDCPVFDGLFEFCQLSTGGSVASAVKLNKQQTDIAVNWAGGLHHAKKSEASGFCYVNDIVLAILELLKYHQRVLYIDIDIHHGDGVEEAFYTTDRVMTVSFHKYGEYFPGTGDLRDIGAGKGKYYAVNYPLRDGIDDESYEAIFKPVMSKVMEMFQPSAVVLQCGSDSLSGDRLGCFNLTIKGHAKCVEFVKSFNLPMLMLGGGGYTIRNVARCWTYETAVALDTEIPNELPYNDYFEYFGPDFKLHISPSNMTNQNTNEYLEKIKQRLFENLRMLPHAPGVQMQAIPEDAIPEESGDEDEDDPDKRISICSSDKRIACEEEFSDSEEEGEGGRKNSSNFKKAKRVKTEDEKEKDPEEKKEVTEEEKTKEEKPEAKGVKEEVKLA
MMP2, sequence (P08253 110-446 limits assumed): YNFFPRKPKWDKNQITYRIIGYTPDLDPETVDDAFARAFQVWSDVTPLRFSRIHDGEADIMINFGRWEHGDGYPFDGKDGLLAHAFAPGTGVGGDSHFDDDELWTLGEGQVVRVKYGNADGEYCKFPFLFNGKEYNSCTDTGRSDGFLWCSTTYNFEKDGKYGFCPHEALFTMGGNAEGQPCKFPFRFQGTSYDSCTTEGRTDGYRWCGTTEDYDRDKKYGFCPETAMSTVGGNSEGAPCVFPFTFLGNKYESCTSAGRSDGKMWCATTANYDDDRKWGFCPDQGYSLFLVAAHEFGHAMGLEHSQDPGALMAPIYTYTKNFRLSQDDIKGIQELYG
MMP9, sequence (P14780 107-444 limits assumed): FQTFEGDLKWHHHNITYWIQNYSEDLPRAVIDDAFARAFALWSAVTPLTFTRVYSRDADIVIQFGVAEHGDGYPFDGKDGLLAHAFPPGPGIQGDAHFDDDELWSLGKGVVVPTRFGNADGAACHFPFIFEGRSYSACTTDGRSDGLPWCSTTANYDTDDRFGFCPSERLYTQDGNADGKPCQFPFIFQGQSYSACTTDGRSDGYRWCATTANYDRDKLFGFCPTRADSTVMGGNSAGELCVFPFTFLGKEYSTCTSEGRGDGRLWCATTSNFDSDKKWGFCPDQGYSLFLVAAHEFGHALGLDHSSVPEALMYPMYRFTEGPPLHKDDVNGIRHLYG

Consider `Oc1cccn(CCCCCn2cc(-c3ccccc3)nn2)c1=S` [Compound 10d, 1-Phenyltriazolylpentyl-3-hydroxypyridin-2-thione], for which the “HDAC1 inhibition, in words” value in data set [1] is “inactive”. Also, in [2] (Homo sapiens, Jurkat, 72 h, read-out: Cellular IC50 Jurkat J.γ, 72 hours, MTS), the IC50 was 1 µM. Moreover, in data set [3], the “Effect on MMP1 activity” value is “inactive”. Further, the “Effect on MMP2 activity” value in data set [4] was “inactive”. For the same molecule, the “Effect on MMP3 activity” value in data set [5] is “inactive”. In addition, in data set [6], the “Effect on MMP7 activity” value is “inactive”. For the same molecule, the “Effect on MMP9 activity” value in data set [7] was “inactive”. The “Effect on MMP14 activity” value in data set [8] was “inactive”. For the same molecule, the “Effect on MMP13 activity” value in data set [9] is listed as “halved”. The “Tubulin acetylation level (Western blot)” value in data set [10] is “increased tubulin acetylation but to a lesser extent than SAHA”.
On to `Oc1cccn(CCCCCCCn2cc(-c3ccccc3)nn2)c1=S` [Compound 10f, 1-Phenyltriazolylheptyl-3-hydroxypyridin-2-thione], for which the “Fold less cytotoxic than 14e, DU145” value in [11] is on record as 3 fold. For the same molecule, the “Fold less cytotoxic than 10d, DU145” value in data set [11] (compared with 10d) worked out at 2 fold. Moreover, the “Fold less cytotoxic than 14e, LNCaP” value in [12] (compared with 14e) is 3 fold. Besides, the “Fold less cytotoxic than 10d, LNCaP” value in data set [12] (compared with 10d) was 2 fold. Further, the “Fold less cytotoxic than 14e, wild type Jurkat” value in data set [13] (relative to 14e) stood at 3 fold. Further, the “Fold less cytotoxic than 10d, wild type Jurkat” value in data set [13] (relative to 10d) worked out at 3 fold.
On to `Cc1ccccc1-c1cn(CCCCCn2cccc(O)c2=S)nn1` [Compound 14c, 1-(2-Tolyl)triazolylpentyl-3-hydroxypyridin-2-thione], for which the “Fold less cytotoxic than 14e, DU145” value in [11] worked out at 2 fold.
As to `N#Cc1cccc(-c2cn(CCCCCn3cccc(O)c3=S)nn2)c1` [Compound 14e, 1-(3-Benzonitrile)triazolylpentyl-3-hydroxypyridin-2-thione], the “HDAC1 inhibition, in words” value in data set [1] is “inactive”. The “HDAC6 potency, fold more effective than 14b” value in data set [14] (relative to 14b) stood at 3 fold. In addition, the “HDAC6 potency, fold more effective than 10d” value in data set [14] (relative to 10d) was 2.5 fold and 3 fold. The “Fold more potent than 10d, DU145” value in data set [11] (relative to 10d) is “about 2 fold”. Also, the “Fold more potent than 10d, LNCaP” value in data set [12] (relative to 10d) was “about 2 fold”. For the same molecule, the “Effect on MMP1 activity” value in [3] is “inactive”. For the same molecule, the “Effect on MMP2 activity” value in data set [4] was “inactive”. Also, in [5], the “Effect on MMP3 activity” value was “inactive”. Further, the “Effect on MMP7 activity” value in data set [6] is “inactive”. The “Effect on MMP9 activity” value in [7] was “inactive”. Also, the “Effect on MMP14 activity” value in [8] was “inactive”. In addition, the “Effect on MMP13 activity” value in data set [9] was “halved”. In addition, in data set [10], the “Tubulin acetylation level (Western blot)” value is “increased tubulin acetylation but to a lesser extent than SAHA”.
For `O=C(CCCCCCC(=O)Nc1ccccc1)NO` [SAHA, suberoylanilide hydroxamic acid], the “Activity against Jurkat Jγ, in words” value in data set [2] is “inactive”.
Regarding `CN1CCc2c(c3ccccc3n2Cc2ccc(C(=O)NO)cc2)C1` [Tubastatin A, reference compound], the “Fold less potent than 10d and 14e, LNCaP” value in data set [12] (relative to 10d and 14e) lay within 2 to 3 fold. The “Activity against Jurkat Jγ, in words” value in data set [2] is “inactive”.

Usually IC50 stands for the concentration needed to halve the response being measured.
